Reference: patent US7700584B2 (Hangzhou Minsheng Pharmaceuticals Co., Ltd., priority 2004, dated 2010)
Structures can show the parent of a compound that is named as a salt.

Legend:
[1] = system: mouse lung cancer Lewis; assay: Activity against mouse grafted lung cancer Lewis; format: in vivo, Kunming mice; conditions: for Inhibition rate (%) / Tumor weight: Lewis; for Tumor weight: X ± SD, n = 10
[2] = system: Bel-7402 human hepatic carcinoma; assay: In vitro anti-tumor IC50 (MTT), Bel-7402; format: cell-based; conditions: Table 4; hydrochloride
Method: (§1) (1) Single cell suspension was seeded into 96-well plates (the cells was diluted in the PRMI-1640 minimum medium to 3×10^4 cells/ml, […] diluted cells/well). […] The experiments were performed in quadruplicate.
(§2) (2) The medium was removed. Solutions of the anti-tumor agents (50 compounds) were prepared in a freshly prepared medium at serial concentrations. […] of the solution was added into each well. Incubation was continued for 48 hours.
(§3) (3) 20 ug of 2 mg/ml MTT was added into each well, and incubated for 4 hours.
(§4) (4) The medium was removed from the well. The microplates were swiftly turned down to throw-off the medium. […] of DMSO was added into each well, and vortexed at room temperature for 10 minutes.
(§5) (5) OD value (λ=570 nm) was measured with an Enzyme-Linked Detector.
(§6) (6) The graph of cell vitality was plotted, and IC50 was calculated.

[3] = system: mouse grafted uterine cervix cancer U14; assay: Activity against mouse grafted uterine cervix cancer U14; format: in vivo, Kunming mice; conditions: for Tumor weight: X ± SD, n = 10; for Average weight (g)-after administration: mouse, in vivo
[4] = system: mouse grafted sarcoma S-180; assay: Activity against mouse grafted sarcoma S-180; format: in vivo, Kunming mice; conditions: for Inhibition rate (%) / Tumor weight: 6 doses; for Tumor weight: X ± SD, n = 10; for Average weight (g)-after administration / Average weight(g)-after administration: mouse, in vivo, iv
Summary of the method: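 Male Kunming mice inoculated axillarily with S-180, 10 per group, given 10% compound solutions IV at 0.4, 0.2 or 0.1 ml/mouse from the day after inoculation, alternate days, 6 doses. Tumours excised the day after last dose; inhibition rate from mean tumour weight versus saline control; repeated three times.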

[5] = system: SMMC-7721 human hepatic carcinoma; assay: In vitro anti-tumor IC50 (MTT), SMMC-7721; format: cell-based; conditions: Table 4; hydrochloride
Method: as §1, §2, §3, §4, §5, §6

[6] = system: LLC mouse Lewis lung carcinoma; assay: In vitro anti-tumor IC50 (MTT), LLC; format: cell-based; conditions: Table 4; hydrochloride
Method: as §1, §2, §3, §4, §5, §6

[7] = system: A-549 human lung adenocarcinoma; assay: In vitro anti-tumor IC50 (MTT), A-549; format: cell-based; conditions: Table 4; hydrochloride
Method: as §1, §2, §3, §4, §5, §6

[8] = U14, first experiment, 10 mg/kg
[9] = U14, first experiment, 20 mg/kg
[10] = U14, first experiment, 40 mg/kg
[11] = U14, second experiment, 10 mg/kg
[12] = U14, second experiment, 20 mg/kg
[13] = U14, second experiment, 40 mg/kg
[14] = U14, third experiment, 10 mg/kg
[15] = U14, third experiment, 20 mg/kg
[16] = U14, third experiment, 40 mg/kg
[17] = S-180, first experiment, 10 mg/kg i.v.
[18] = S-180, first experiment, 20 mg/kg i.v.
[19] = S-180, first experiment, 40 mg/kg i.v.
[20] = S-180, second experiment, 10 mg/kg i.v.
[21] = S-180, second experiment, 20 mg/kg i.v.
[22] = S-180, second experiment, 40 mg/kg i.v.

## CC(C)C1CC23OC1(O)C/C(=C\Nc1ccc(O)cc1)C2CCC3C (stereo not drawn) [Compound 6, Curcumol p-hydroxy aniline hydrochloride]
[1]; first experiment, 10 mg/kg
  Inhibition rate (%): 29.5%
  Tumor weight: 2.10 ± 0.37 g
[1]; first experiment, 20 mg/kg
  Inhibition rate (%): 42.6%
  Tumor weight: 1.71 ± 0.29 g
[1]; first experiment, 40 mg/kg
  Inhibition rate (%): 51.7%
  Tumor weight: 1.44 ± 0.31 g
[1]; second experiment, 10 mg/kg
  Inhibition rate (%): 25.3%
  Tumor weight: 1.80 ± 0.37 g
[1]; second experiment, 20 mg/kg
  Inhibition rate (%): 44.4%
  Tumor weight: 1.34 ± 0.29 g
[1]; second experiment, 40 mg/kg
  Inhibition rate (%): 50.6%
  Tumor weight: 1.19 ± 0.31 g
[1]; third experiment, 10 mg/kg
  Inhibition rate (%): 33.3%
  Tumor weight: 1.80 ± 0.37 g
[1]; third experiment, 20 mg/kg
  Inhibition rate (%): 47.4%
  Tumor weight: 1.42 ± 0.29 g
[1]; third experiment, 40 mg/kg
  Inhibition rate (%): 52.6%
  Tumor weight: 1.28 ± 0.31 g
[1]; first of three concentrations (40 mg/kg)
  inhibitory effect against mouse lung cancer Lewis: 51.6%
[1]; second of three concentrations (20 mg/kg)
  inhibitory effect against mouse lung cancer Lewis: 44.8%
[1]; third of three concentrations (10 mg/kg)
  inhibitory effect against mouse lung cancer Lewis: 29.4%
[2]
  IC50 (ug/ml) against tumor cell lines, Bel-7402: 1.0 µg/mL
[3]; [8]
  Inhibition rate (%): 37.3%
  Tumor weight: 2.2 ± 0.37 g
[3]; [9]
  Inhibition rate (%): 65.0%
  Tumor weight: 1.23 ± 0.29 g
[3]; [10]
  Inhibition rate (%): 72.6%
  Tumor weight: 0.96 ± 0.31 g
[3]; [11]
  Inhibition rate (%): 32.3%
  Tumor weight: 2.3 ± 0.37 g
[3]; [12]
  Inhibition rate (%): 64.7%
  Tumor weight: 1.20 ± 0.29 g
[3]; [13]
  Inhibition rate (%): 73.5%
  Tumor weight: 0.90 ± 0.31 g
[3]; [14]
  Inhibition rate (%): 35.9%
  Tumor weight: 2.32 ± 0.37 g
[3]; [15]
  Inhibition rate (%): 63.5%
  Tumor weight: 1.32 ± 0.29 g
[3]; [16]
  Inhibition rate (%): 72.1%
  Tumor weight: 1.01 ± 0.31 g
[3]; all the three concentrations, i.v., female mice
  inhibitory effect against mouse grafted uterine cervix cancer U14 (in words): good inhibitory effect
[3]; 10 mg/kg
  Average weight (g)-after administration: 22.1 g
[3]; 20 mg/kg
  Average weight (g)-after administration: 21.6 g
[3]; 40 mg/kg
  Average weight (g)-after administration: 21.6 g
[4]; [17]
  Inhibition rate (%): 56%
  Tumor weight: 1.1 ± 0.31 g
[4]; [18]
  Inhibition rate (%): 68.4%
  Tumor weight: 0.79 ± 0.21 g
[4]; [19]
  Inhibition rate (%): 75.2%
  Tumor weight: 0.62 ± 0.34 g
[4]; [20]
  Inhibition rate (%): 57.7%
  Tumor weight: 1.1 ± 0.31 g
[4]; [21]
  Inhibition rate (%): 68.8%
  Tumor weight: 0.82 ± 0.32 g
[4]; [22]
  Inhibition rate (%): 72.7%
  Tumor weight: 0.71 ± 0.44 g
[4]; 10 mg/kg
  Average weight (g)-after administration: 22.3 g
  Average weight(g)-after administration: 22.3 g
[4]; 20 mg/kg
  Average weight (g)-after administration: 22.9 g
  Average weight(g)-after administration: 21.9 g
[4]; 40 mg/kg
  Average weight (g)-after administration: 22.0 g
  Average weight(g)-after administration: 22.0 g
[4]; three different concentrations (40, 20, 10 mg/kg), i.v.
  inhibitory effect against mouse sarcoma S-180 (in words): good inhibitory effect
[5]
  IC50 (ug/ml) against tumor cell lines, SMMC-7721: 4.0 µg/mL
[6]
  IC50 (ug/ml) against tumor cell lines, LLC: 3.8 µg/mL
[7]
  IC50 (ug/ml) against tumor cell lines, A-549: 2.1 µg/mL
